# According to patent EP4427746A1, “TREATMENT OF DEMENTIA USING BORTEZOMIB OR PARBENDAZOLE” (Bash Biotech Inc, priority 2023, dated 2024):
# Read-outs that look alike come from different tables or passages of the source.
# Tests used:
# [1] = system: glutaminase-2; assay: Western blot for drug-induced glutaminase content; type: cell-based; conditions: U138MG cells, Figure 8
# Experimental: (§1) A microplate reader was used to measure absorbances.
# (§2) Drug-induced glutaminase content was measured by western. The cells were washed with PBS and lysed with CelLytic M (C2978, Sigma-Aldrich, Saint Louis, MO, USA) lysis buffer containing protease inhibitors. The lysates were centrifuged at 12,000 rotations per minute for 5 min, and the supernatant was collected. Proteins were separated by Mini-PROTEAN® TGXTM Precast Gels (BioRad, Berkeley, CA, USA) and transferred to a Trans-Blot Turbo Mini 0.2um PVDF Transfer Packs membrane (BioRad, Berkeley, CA, USA) by using Trans-Blot® TurboTM Transfer System (Bio-Rad, Berkeley, CA, USA). The antibodies for mitochondrial glutaminase-1 (kidney-type) and glutaminase-2 (liver-type) encoded from two GLS isomers and GAPDH were used for primary immunoblotting. All the antibodies were diluted at a 1:1000 concentration. DMSO was used as a blank reference. The membranes were incubated in primary antibody solution overnight at 4 °C with gentle rocking. The secondary antibody, goat Anti-Rabbit HRP (ab205718) or goat anti-mouse IgG-HRP (sc2005, Santa Cruz Biotechnology, Inc., Dallas, TX, USA), was blotted for 30 min at 4 °C with gentle rocking. The protein bands were detected with ImageQuant LAS 500 (29-0050-63)
# [2] = system: glioblastoma cell line U138MG
# Experimental: (§3) Before performing these assays, the optimum cell count per well was decided by comparing the optical density for L-glutamate (ab120049) absorbance between DMEM-0819 (with glutamine) and DMEM-5671 (without glutamine) culture media, which was tested by glutamate assay kit from Abcam (Abcam PLC, Cambridge, UK) at 450 nm following its protocol, then cultured 20000 cells per well in DMEM-0819 with L-alanyl-L glutamine, adherently, treated with drugs dissolved in DMSO separately. To prepare LDH assay high control samples, cell lysis solution was added instead of drugs. Samples were incubated in a humidified incubator (at 37 °C, 5% CO2). A microplate reader was used to measure absorbances.
# (§4) Tetrazolium reduction assay (MTT assays) and lactate dehydrogenase release assays (LDH assays) were conducted to assess cell metabolic activity (cell proliferation) and to measure cytotoxicity (drug toxicity). Abcam protocols (MTT: ab211091, LDH: ab65293) were followed. Here, both protocols were summarized.
# (§5) Before adding assay solutions on day 1 (24 hours) and day 2 (48 hours), the drug treatment media were aspirated from plates and transferred to well plates.
# (§6) For the MTT assay, serum-free media and MTT Reagent were added to each well. Control samples were prepared without using cells but serum-free media and MTT reagent. […] The reduction of MTT by mitochondrial succinate dehydrogenase was measured by reading absorbance at OD = 590 nm (yellow to purple). Cytotoxicity (CT) was calculated as a ratio of measures of absorbance of control wells (AbsC) and absorbance of sample-containing wells (AbsS) as below: CT = 100∗((AbsC−AbsS))/(AbsC) [formula]
# (§7) For the LDH release assay, LDH reaction mix was added to wells. […] The release of LDH from cells due to damaged plasma membrane was measured by reading absorbance at OD = 450 nm (blue). Cytotoxicity (CT) was calculated as a ratio of measures of absorbance of low control wells (AbsLC), high control wells (AbsHC) sample wells (AbsS) as below: CT = 100∗((AbsS−AbsLC))/((AbsHC−AbsLC)) [formula]
# [3] = system: glioblastoma cell line U138MG; assay: Glutamate contents assay; type: cell-based; conditions: U138MG cells after drug treatment, compared to cell viability, Figure 7
# Description: as §1
# Drug efficacy describes how the drug-protein interaction manipulates the normal action of the protein. Glutamate content was examined at differing drug concentrations with the glutamate assay kit to measure drug efficacies. Abcam protocol (ab83389) was followed to quantitate glutamate content. Here, the protocols were summarized.
# To prepare samples, cells were harvested, washed with cold PBS, resuspended in an assay buffer, homogenised, incubated for 15 - 30 min on ice, and centrifuged for 2 - 5 minutes at 4°C at top speed using a cold microcentrifuge. The supernatant was collected and transferred to a clean tube, then distributed to well plates.
# To quantitate free glutamate levels, the reaction mixture was added to each standard and sample well. The background reaction mix was added to the background sample wells. Wells were mixed and incubated at 37°C for 30 minutes protected from light. Colour change was measured at OD = 450 nm (blue). Glutamate concentration was calculated as formulated in the protocol, then divided by relative cytotoxicity by MTT assay to extrapolate drug efficacy.
# [4] = system: glutaminase-1; assay: Western blot for drug-induced glutaminase content; type: cell-based; conditions: U138MG cells, Figure 8
# Experimental: as §1, §2
# [5] = system: glioblastoma cell line U138MG; assay: Drug toxicity: MTT assay and LDH release assay; conditions: U138MG glial cells, MTT and LDH release assays, 24 and 48 hours, Figure 6
# Experimental: as §3, §4, §5, §6, §7
Compound,drug affinity for glutaminase-2 (relative band intensities) [1],drug toxicity (metabolic activity and cytotoxicity) [2],glutamate levels [3],drug affinity for glutaminase-1 (relative band intensities) [4],drug toxicity (metabolic activity and cytotoxicity) [5]
CC(C)C[C@H](NC(=O)[C@H](Cc1ccccc1)NC(=O)c1cnccn1)B(O)O [bortezomib],drastic,toxic for glial cells even at low concentrations,highly decreased,,
CC12CC3CC(C)(C1)CC(N)(C3)C2 [memantine],significant and higher affinity,insignificant,highly decreased,significant drug affinity for glutaminase-1 could be measured for only comparably higher concentrations,
CCCCc1ccc2[nH]c(NC(=O)OC)nc2c1 [parbendazole],drastic,,highly decreased,significant drug affinity for glutaminase-1 could be measured for only comparably higher concentrations,toxic for glial cells even at low concentrations
